What was measured:
[1] = biological target: T1, Hb (Mus musculus, UniProt P01942); experiment: Tolerance to hypoxia mouse model: PK/PD (Hb occupancy, hemoximetry of blood from dosed mice); type: in vivo; settings: healthy mice
T1 construct: from tissue; host or cells: whole blood (red blood cells) of dosed C57BL / C57BL/6J mice
Experimental: (§1) Male, C57BL mice were fitted with a dorsal skinfold window chamber for direct visualization of an intact microvascular bed (Yalcin & Cabrales 2012). After the window chamber was implanted, the animals were left to recover for at least 2 days, before undergoing surgery a second time for arterial (carotid) catheter implantation (PESO tubing). After two day of recovery, mice were dosed orally with Compound 1 (70 or 140 mg/kg) or vehicle only and Hb O2 affinity was determined by hemoximetry. Two hours post dose, conscious mice were placed in a restraining tube with a longitudinal slit from which the protruding window chamber provided a microscopic stage for observation. In this setup, gas flow rate (0.2 L/min) into the tube is diffused by a cotton filter barrier. Baseline measurements for normoxia (21% O2) were completed within an hour of restraining mice. The animals were then exposed to stepwise hypoxia by decreasing the O2 concentration to 15, 10 and 5%. Animals were kept at each hypoxic level for 30 min. Mice were allowed 15 min of acclimatization at each new hypoxic level before measurements were taken. During hypoxia, changes in systemic and microvascular hemodynamics, blood gases, blood lactate, tissue partial pressure of O2 (PO2), tissue hypoxia and tolerance to hypoxia were evaluated. At each time point, mice with adequate systolic blood pressure (BP) were counted as survived and mice with severe hypotension (BP≤60 mmHg) were counted as non-survived and were euthanized.
Oxygen equilibrium curves for mice blood were obtained by deoxygenation of O2-equilibrated samples in a Hemox buffer at 37° C., using a Hemox Analyzer (TCS Scientific Corporation, New Hope, Pa.). […] The absorbance at wavelengths that correspond to the isosbestic point (570 nm) and deoxy Hb (560 nm) was recorded as a function of the sample O2 tension (pO2). During deoxygenation, the pO2 and percent O2 saturation values were collected to obtain the OECs and the p50 values (partial pressure of O2 at which Hb is 50% saturated with O2). p50 values were calculated using a non-linear regression analysis. […]

[2] = system: healthy mice subjected to extreme hypoxia; experiment: Tolerance to hypoxia mouse model: systemic parameters, tissue hypoxia, survival; type: in vivo; settings: for survival: after 1.5 hours of exposure to 5% O2 hypoxia
Experimental: as §1
MAP (mean arterial pressure) and heart rate (HR) were recorded continuously from Carotid catheter. Hct was measured from centrifuged arterial blood samples taken in heparinized capillary tubes. Arterial blood was collected in heparinized glass capillaries (50 μL) and immediately analyzed for PO2, PCO2, base excess, and pH. Arterial Hb saturations were measured using a CO-Oximeter.
High resolution non-invasive microvascular PO2 measurements were made using phosphorescence quenching microscopy (PQM). Tissue PO2 was measured in regions in between functional capillaries (Yalcin & Cabrales 2012). Hb O2 saturations in the microcirculation are calculated using the O2 equilibrium curves measured.
Tissue hypoxia was studied via immunohistochemistry staining for pimonidazole bound to hypoxic zones in vital tissues. Mice received a bolus intraperitoneal injection (IP) injection of the hypoxic marker Hypoxyprobe-1 (pimonidazole 40 mg/kg) and 5 mg/kg Hoechst 33342 diluted in PBS (total volume, 100 μL). At the end of the study, mice were euthanized and tissues extracted for histology. Sections are stained with monoclonal antibody against pimonidazole. Images for pimonidazole antibody-stained areas and Hoechst were recorded. Results are reported as the ratio of pimonidazole stained area to the total cellular area by co-localization of pimonidazole and Hoechst.

T1 sequence (P01942 2-142 limits assumed): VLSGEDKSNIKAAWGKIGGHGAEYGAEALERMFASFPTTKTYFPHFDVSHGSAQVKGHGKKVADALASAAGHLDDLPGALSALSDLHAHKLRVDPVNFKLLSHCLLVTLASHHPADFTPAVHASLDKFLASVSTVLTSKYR
T1 sequence (P02088 2-147 partner limits assumed): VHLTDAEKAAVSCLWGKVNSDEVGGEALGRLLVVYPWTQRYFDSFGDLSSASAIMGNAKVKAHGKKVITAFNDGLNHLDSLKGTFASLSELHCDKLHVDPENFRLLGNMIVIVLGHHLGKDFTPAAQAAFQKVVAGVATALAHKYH

O=Cc1c(O)cccc1OC[C@@H]1CCCCN1C(=O)c1cccnc1 [Compound 1, (S)-2-hydroxy-6-((1-nicotinoylpiperidin-2-yl)methoxy)benzaldehyde]
calculated Hb occupancy ([1]; 70 mg/kg oral): ~30% | calculated Hb occupancy ([1]; 140 mg/kg oral): ~60% | Hb O2 affinity (left-shift in the OEC) in whole blood from dosed mice ([1]; 70 or 140 mg/kg oral, vs vehicle): dose-dependent increase in Hb O2 affinity relative to control | survival ([2]; 70 mg/kg): 16% | survival ([2]; 140 mg/kg): 83% | arterial blood pH ([2]; during 10% and 5% O2 hypoxia): normal during hypoxia | arterial blood oxygen saturation (SaO2) ([2]; during hypoxia, 70 or 140 mg/kg oral, vs control): dose-dependently increased SaO2 relative to control | heart rate (HR) ([2]; during hypoxia, vs control): sustained higher | mean arterial pressure (MAP) ([2]; during hypoxia, vs control): sustained higher mean BP | blood lactate levels ([2]; extreme hypoxia (5% O2), vs control): reduced lactate levels relative to control | hypoxic tissues positively stained by pimonidazole ([2]; extreme hypoxia, vs control): reduced hypoxic tissues positively stained by pimonidazole relative to control | arterial blood partial pressure of O2 (PaO2) ([2]; stepwise hypoxia, 70 or 140 mg/kg oral): the PaO2 was the same in Compound 1-treated and control mice

From US10695330B2, “Methods of treatment” (Global Blood Therapeutics, Inc., priority 2015, dated 2020)
